What was measured:
Assay type in all cases: cell-based
[1] = molecular target: T1, proteins of HEK293T cells transiently overexpressing caspase-6 (Homo sapiens, UniProt Q96F45); settings: protein ZNF503 (Q96F45), analysis C6
T1 sequence (Q96F45 1-646): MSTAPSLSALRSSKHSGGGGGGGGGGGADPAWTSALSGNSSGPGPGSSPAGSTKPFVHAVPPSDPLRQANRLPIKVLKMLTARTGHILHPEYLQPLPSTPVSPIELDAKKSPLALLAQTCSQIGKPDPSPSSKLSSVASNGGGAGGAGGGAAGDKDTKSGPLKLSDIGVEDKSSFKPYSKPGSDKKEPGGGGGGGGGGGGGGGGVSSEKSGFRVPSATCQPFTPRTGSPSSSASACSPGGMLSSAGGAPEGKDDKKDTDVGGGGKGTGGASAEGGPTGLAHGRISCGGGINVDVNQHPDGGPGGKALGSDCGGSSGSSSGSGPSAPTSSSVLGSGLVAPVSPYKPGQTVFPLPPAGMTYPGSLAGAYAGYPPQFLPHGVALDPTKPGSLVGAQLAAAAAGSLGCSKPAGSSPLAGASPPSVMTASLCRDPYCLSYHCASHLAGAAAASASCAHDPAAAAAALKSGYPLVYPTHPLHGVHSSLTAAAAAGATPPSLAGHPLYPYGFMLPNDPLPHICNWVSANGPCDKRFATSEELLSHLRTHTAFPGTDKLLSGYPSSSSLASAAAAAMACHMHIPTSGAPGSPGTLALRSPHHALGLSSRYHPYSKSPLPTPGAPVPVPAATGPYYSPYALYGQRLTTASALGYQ

[2] = molecular target: proteins of HEK293T cells transiently overexpressing caspase-6 (Homo sapiens, UniProt Q14444); settings: exp_ref Probe; protein CAPRIN1 (Q14444); analysis C6
Sequence of proteins of HEK293T cells transiently overexpressing caspase-6 (Homo sapiens, UniProt Q14444) (Q14444 whole entry): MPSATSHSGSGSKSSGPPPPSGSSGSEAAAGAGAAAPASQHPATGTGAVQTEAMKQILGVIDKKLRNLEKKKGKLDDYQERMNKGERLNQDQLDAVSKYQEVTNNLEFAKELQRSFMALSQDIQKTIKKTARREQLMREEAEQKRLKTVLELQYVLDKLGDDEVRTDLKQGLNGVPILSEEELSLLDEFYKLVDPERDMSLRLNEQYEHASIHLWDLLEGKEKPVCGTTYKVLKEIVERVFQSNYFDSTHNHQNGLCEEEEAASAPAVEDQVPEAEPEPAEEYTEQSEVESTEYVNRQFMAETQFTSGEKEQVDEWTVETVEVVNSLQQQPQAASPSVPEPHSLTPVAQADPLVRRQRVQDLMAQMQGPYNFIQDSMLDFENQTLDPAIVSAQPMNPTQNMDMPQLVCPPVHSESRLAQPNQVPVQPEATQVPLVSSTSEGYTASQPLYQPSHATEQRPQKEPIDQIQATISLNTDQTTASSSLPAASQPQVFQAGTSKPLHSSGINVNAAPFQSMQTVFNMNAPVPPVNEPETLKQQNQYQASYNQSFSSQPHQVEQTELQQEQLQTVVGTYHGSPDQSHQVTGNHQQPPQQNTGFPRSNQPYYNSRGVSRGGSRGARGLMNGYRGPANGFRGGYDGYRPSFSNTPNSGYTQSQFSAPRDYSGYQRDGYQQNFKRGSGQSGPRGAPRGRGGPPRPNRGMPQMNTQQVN

[3] = molecular target: proteins of HEK293T cells transiently overexpressing caspase-6 (Homo sapiens, UniProt Q9NUU7); settings: protein DDX19A (Q9NUU7); exp_ref Probe; analysis C6
Sequence of proteins of HEK293T cells transiently overexpressing caspase-6 (Homo sapiens, UniProt Q9NUU7) (Q9NUU7 whole entry): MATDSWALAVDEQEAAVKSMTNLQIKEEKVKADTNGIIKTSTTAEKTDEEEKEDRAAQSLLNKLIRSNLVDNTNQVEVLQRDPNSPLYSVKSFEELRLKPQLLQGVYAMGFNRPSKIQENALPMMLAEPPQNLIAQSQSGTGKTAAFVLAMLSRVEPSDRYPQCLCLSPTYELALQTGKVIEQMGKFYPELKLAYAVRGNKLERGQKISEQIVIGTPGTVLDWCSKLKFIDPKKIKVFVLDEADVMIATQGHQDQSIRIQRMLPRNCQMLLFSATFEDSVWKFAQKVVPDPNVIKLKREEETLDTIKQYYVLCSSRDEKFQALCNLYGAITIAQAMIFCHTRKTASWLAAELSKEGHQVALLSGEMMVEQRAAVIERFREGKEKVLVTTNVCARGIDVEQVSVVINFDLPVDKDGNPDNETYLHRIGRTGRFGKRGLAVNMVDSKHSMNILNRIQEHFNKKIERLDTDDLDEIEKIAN

[4] = molecular target: T2, proteins of HEK293T cells transiently overexpressing caspase-6 (Homo sapiens, UniProt P46977); settings: protein STT3A (P46977)
T2 sequence (P46977 1-705): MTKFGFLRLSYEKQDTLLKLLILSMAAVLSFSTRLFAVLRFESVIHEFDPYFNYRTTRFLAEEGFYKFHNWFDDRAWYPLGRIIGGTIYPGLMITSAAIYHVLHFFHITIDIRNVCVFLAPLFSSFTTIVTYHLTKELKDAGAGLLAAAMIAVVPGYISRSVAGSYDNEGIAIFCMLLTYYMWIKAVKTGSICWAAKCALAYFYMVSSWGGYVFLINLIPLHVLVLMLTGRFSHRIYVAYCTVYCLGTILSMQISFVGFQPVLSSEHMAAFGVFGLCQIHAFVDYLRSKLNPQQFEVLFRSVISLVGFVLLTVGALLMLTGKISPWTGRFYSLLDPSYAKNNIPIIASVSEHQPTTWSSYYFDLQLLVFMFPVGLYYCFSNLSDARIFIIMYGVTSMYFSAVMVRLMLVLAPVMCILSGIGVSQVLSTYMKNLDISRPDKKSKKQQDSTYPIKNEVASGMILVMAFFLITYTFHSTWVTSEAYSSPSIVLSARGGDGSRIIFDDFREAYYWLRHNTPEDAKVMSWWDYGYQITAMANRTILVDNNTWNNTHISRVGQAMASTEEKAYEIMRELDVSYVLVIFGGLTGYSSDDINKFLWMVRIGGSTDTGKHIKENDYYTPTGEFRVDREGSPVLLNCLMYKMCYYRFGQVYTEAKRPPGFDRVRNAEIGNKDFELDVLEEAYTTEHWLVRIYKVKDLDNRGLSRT

[5] = molecular target: T3, proteins of HEK293T cells transiently overexpressing caspase-6 (Homo sapiens, UniProt Q14697); settings: protein GANAB (Q14697)
T3 sequence (Q14697 29-944): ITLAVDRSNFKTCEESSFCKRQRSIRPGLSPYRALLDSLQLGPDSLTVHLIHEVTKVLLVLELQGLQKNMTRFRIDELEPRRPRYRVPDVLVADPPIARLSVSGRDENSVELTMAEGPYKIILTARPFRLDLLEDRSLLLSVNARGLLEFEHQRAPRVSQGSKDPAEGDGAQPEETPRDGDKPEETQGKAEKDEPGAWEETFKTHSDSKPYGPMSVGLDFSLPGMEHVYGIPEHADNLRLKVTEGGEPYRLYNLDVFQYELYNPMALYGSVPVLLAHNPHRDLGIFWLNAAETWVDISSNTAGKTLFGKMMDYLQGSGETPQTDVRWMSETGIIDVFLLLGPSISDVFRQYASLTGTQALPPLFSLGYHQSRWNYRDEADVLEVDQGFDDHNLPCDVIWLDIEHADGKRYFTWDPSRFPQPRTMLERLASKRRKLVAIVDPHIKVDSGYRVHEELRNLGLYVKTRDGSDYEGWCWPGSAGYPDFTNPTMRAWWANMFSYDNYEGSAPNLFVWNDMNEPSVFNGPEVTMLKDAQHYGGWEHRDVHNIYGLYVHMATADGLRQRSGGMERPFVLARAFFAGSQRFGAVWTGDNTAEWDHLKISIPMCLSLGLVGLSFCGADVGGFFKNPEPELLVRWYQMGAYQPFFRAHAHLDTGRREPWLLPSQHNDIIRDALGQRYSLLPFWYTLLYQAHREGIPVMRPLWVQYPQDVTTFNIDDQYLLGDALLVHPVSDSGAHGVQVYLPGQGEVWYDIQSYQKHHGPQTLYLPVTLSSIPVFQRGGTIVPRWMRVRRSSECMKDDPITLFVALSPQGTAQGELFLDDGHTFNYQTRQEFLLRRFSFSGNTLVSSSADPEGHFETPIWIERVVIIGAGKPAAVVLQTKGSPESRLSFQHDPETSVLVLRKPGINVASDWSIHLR

[6] = molecular target: proteins of HEK293T cells transiently overexpressing caspase-6 (Homo sapiens, UniProt O43390); settings: exp_ref Probe; protein HNRNPR (O43390); analysis C6
Sequence of proteins of HEK293T cells transiently overexpressing caspase-6 (Homo sapiens, UniProt O43390) (O43390 whole entry): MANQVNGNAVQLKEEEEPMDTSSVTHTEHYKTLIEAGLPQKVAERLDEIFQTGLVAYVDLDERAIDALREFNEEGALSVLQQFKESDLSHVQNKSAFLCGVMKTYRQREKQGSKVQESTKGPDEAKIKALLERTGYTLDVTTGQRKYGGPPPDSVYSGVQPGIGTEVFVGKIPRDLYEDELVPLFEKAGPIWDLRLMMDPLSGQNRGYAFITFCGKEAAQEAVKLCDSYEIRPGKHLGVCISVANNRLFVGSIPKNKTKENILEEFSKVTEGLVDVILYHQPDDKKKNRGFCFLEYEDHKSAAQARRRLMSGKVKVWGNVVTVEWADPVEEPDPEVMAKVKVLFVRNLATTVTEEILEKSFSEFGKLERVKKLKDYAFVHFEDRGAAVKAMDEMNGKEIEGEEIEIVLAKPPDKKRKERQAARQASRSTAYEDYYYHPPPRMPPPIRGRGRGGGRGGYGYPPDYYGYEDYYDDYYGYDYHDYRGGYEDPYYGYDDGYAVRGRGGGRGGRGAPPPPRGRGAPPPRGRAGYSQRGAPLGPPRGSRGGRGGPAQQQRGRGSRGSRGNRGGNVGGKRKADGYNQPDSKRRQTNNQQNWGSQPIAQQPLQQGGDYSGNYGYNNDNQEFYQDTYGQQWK

[7] = molecular target: proteins of HEK293T cells transiently overexpressing caspase-6 (Homo sapiens, UniProt Q13838); settings: exp_ref Probe; protein DDX39B (Q13838); analysis C6
Sequence of proteins of HEK293T cells transiently overexpressing caspase-6 (Homo sapiens, UniProt Q13838) (Q13838 whole entry): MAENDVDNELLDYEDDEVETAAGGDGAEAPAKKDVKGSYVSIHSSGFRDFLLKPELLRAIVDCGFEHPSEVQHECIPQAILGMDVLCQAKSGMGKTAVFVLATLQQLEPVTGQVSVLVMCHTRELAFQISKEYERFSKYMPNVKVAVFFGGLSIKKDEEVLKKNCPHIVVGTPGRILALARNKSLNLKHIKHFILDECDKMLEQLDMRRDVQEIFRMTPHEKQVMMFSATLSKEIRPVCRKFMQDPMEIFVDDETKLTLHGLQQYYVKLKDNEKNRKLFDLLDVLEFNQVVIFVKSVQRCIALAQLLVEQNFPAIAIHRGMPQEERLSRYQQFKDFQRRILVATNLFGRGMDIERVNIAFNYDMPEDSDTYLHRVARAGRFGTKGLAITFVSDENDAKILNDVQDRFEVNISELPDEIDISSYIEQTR

[8] = molecular target: proteins of HEK293T cells transiently overexpressing caspase-6 (Homo sapiens, UniProt P05023); settings: exp_ref Probe; protein ATP1A1 (P05023); analysis C6

## C#CCOc1ccc([C@@H]2C[C@@H](C(=O)Nc3ccc(OC(F)(F)F)cc3)CN(S(=O)(=O)C=C)C2)cc1 (relative stereo) [13-t]
[1]; Expt Probe
  enrich.exp.med.lin: 59.486
  enrich.exp.med.log2: 5.894
[1]; exp_ref Probe
  enrich.exp.med: 5.894
[2]
  enrich.exp.med: 0.06778
[3]
  enrich.exp.med: 1.908
[4]
  enrich.exp.med.lin: 3.857
  enrich.exp.med.log2: 1.948
[4]; exp_ref Probe, analysis C6
  enrich.exp.med: 1.948
[5]; exp_ref Probe, analysis C6
  enrich.exp.med: -0.2903
[5]
  enrich.exp.med.lin: 0.8177
  enrich.exp.med.log2: -0.2903
[6]
  enrich.exp.med: 0.1675
[7]
  enrich.exp.med: 0.9779
[8]
  enrich.exp.med: -0.3639

From paper PMC10176470, “Engaging a Non-catalytic Cysteine Residue Drives Potent and Selective Inhibition of Caspase-6” (Journal of the American Chemical Society, 2023)
